Reference: patent EP1680415B1, “PYRROLIDINYL UREA DERIVATIVES AS ANGIOGENESIS INHIBITORS” (ABBOTT LABORATORIES, priority 2003, dated 2005)

System: HMVEC
Test: human microvascular endothelial (HMVEC) migration assay
Format: cell-based
Details: Inhibition of HMVEC migration, activators 15 ng/mL bFGF/VEGF, 4 hours at 37 °C, compared to a positive control; for inhibition at 0.0001 µM: Homo sapiens, 0.1 nM
Procedure: The human microvascular endothelial (HMVEC) migration assay was run according to the procedure of S. S. Tolsma, O. V. Volpert, D. J. Good, W. F. Frazier, P. J. Polverini and N. Bouck, J. Cell Biol. 122, 497-511 (1993).
The HMVEC migration assay was carried out using Human Microvascular Endothelial Cells-Dermal (single donor) and Human Microvascular Endothelial Cells, (neonatal). The BCE or HMVEC cells were starved overnight in DME containing 0.01% bovine serum albumin (BSA). Cells were then harvested with trypsin and resuspended in DME with 0.01 % BSA at a concentration of 1.5 X 10^6 cells per mL. Cells were added to the bottom of a 48 well modified Boyden chamber (Nucleopore Corporation, Cabin John, MD). The chamber was assembled and inverted, and cells were allowed to attach for 2 hours at 37 °C to polycarbonate chemotaxis membranes (5 µm pore size) that had been soaked in 0.01 % gelatin overnight and dried. The chamber was then reinverted, and test substances (total volume of 50 µL), including activators, 15 ng/mL bFGF/VEGF, were added to the wells of the upper chamber. The apparatus was incubated for 4 hours at 37 °C. Membranes were recovered, fixed and stained (Diff Quick, Fisher Scientific) and the number of cells that had migrated to the upper chamber per 3 high power fields counted. Background migration to DME + […] was subtracted and the data reported as the number of cells migrated per 10 high power fields (400X) or, when results from multiple experiments were combined, as the percent inhibition of migration compared to a positive control.

In the case of “4-methyl-N-{(3R)-1-[(6-methylpyridin-3-yl)carbonyl]pyrrolidin-3-yl}-1,4-diazepane-1-carboxamide [Example 94]”, the “% Inhibition @ 0.01 nM” value (0.01 nM) is reported as 57%.

Work on `Cc1ccc(C(=O)N2CC[C@@H](NC(=O)NCc3ccccc3)C2)cn1` [Example 1, N-benzyl-N'-{(3R)-1-[(6-methylpyridin-3-yl)carbonyl]pyrrolidin-3-yl}urea] yielded an inhibition at 0.0001 µM of 80%.

`Cc1ccc(C(=O)N2CC[C@@H](NC(=O)N3CCCC3)C2)cn1` [Example 2, N-{(3R)-1-[(6-methyl-3-pyridinyl)carbonyl]-3-pyrrolidinyl}-1-pyrrolidinecarboxamide] was tested, and the inhibition at 0.0001 µM was 98%.

With `Cc1ccc(C(=O)N2CC[C@@H](NC(=O)NCCCN3CCOCC3)C2)cn1` [Example 3, N-{(3R)-1-[(6-methyl-3-pyridinyl)carbonyl]-3-pyrrolidinyl}-N'-[3-(4-morpholinyl)propyl]urea] the inhibition at 0.0001 µM was 60%.

With `Cc1ccc(C(=O)N2CC[C@@H](NC(=O)NCCc3c[nH]cn3)C2)cn1` [Example 4, N-[2-(1H-imidazol-4-yl)ethyl]-N'-{(3R)-1-[(6-methyl-3-pyridinyl)carbonyl]-3-pyrrolidinyl}urea] the inhibition at 0.0001 µM was 69%.

Work on `Cc1ccc(C(=O)N2CC[C@@H](NC(=O)NCCc3c[nH]c4ccccc34)C2)cn1` [Example 5, N-[2-(1H-indol-3-yl)ethyl]-N'-{(3R)-1-[(6-methyl-3-pyridinyl)carbonyl]-3-pyrrolidinyl}urea] yielded an inhibition at 0.0001 µM of 59%.

`CCNC(=O)N[C@@H]1CCN(C(=O)c2ccc(C)nc2)C1` [Example 6, N-ethyl-N'-{(3R)-1-[(6-methyl-3-pyridinyl)carbonyl]-3-pyrrolidinyl}urea] gave an inhibition at 0.0001 µM of 70%.

Molecule `Cc1ccc(C(=O)N2CC[C@@H](NC(=O)NCC(C)C)C2)cn1` [Example 7, N-isobutyl-N'-{(3R)-1-[(6-methyl-3-pyridinyl)carbonyl]-3-pyrrolidinyl}urea] has an inhibition at 0.0001 µM of 90%.

For `CCCC(C)NC(=O)N[C@@H]1CCN(C(=O)c2ccc(C)nc2)C1` (stereo partly drawn) [Example 8, N-(1-methylbutyl)-N'-{(3R)-1-[(6-methyl-3-pyridinyl)carbonyl]-3-pyrrolidinyl}urea], the inhibition at 0.0001 µM was 56%.

`Cc1ccc(C(=O)N2CC[C@@H](NC(=O)NCC(C)(C)C)C2)cn1` [Example 9, N-{(3R)-1-[(6-methyl-3-pyridinyl)carbonyl]-3-pyrrolidinyl}-N'-neopentylurea] showed an inhibition at 0.0001 µM of 71%.

`Cc1ccc(C(=O)N2CC[C@@H](NC(=O)NCCC(C)(C)C)C2)cn1` [Example 10, N-(3,3-dimethylbutyl)-N'-{(3R)-1-[(6-methyl-3-pyridinyl)carbonyl]-3-pyrrolidinyl}urea] showed an inhibition at 0.0001 µM of 65%.

`Cc1ccc(C(=O)N2CC[C@@H](NC(=O)NCC(F)(F)F)C2)cn1` [Example 11, N-{(3R)-1-[(6-methyl-3-pyridinyl)carbonyl]-3-pyrrolidinyl}-N'-(2,2,2-trifluoroethyl)urea] gave an inhibition at 0.0001 µM of 81%.

`COCC(C)NC(=O)N[C@@H]1CCN(C(=O)c2ccc(C)nc2)C1` (stereo partly drawn) [Example 12, N-(2-methoxy-1-methylethyl)-N'-{(3R)-1-[(6-methyl-3-pyridinyl)carbonyl]-3-pyrrolidinyl}urea] was tested, and the inhibition at 0.0001 µM was 77%.

For `CCOCCNC(=O)N[C@@H]1CCN(C(=O)c2ccc(C)nc2)C1` [Example 13, N-(2-ethoxyethyl)-N'-{(3R)-1-[(6-methyl-3-pyridinyl)carbonyl]-3-pyrrolidinyl}urea], the inhibition at 0.0001 µM was 83%.

In the case of `Cc1ccc(C(=O)N2CC[C@@H](NC(=O)NCC3CCOC3)C2)cn1` (stereo partly drawn) [Example 14, N-{(3R)-1-[(6-methyl-3-pyridinyl)carbonyl]-3-pyrrolidinyl}-N'-(tetrahydro-3-furanylmethyl)urea], the inhibition at 0.0001 µM is reported as 57%.

`Cc1ccc(C(=O)N2CC[C@@H](NC(=O)NCC#N)C2)cn1` [Example 15, N-(cyanomethyl)-N'-{(3R)-1-[(6-methyl-3-pyridinyl)carbonyl]-3-pyrrolidinyl}urea] was tested, and the inhibition at 0.0001 µM was 64%.

`C#CCNC(=O)N[C@@H]1CCN(C(=O)c2ccc(C)nc2)C1` [Example 16, N-{(3R)-1-[(6-methyl-3-pyridinyl)carbonyl]-3-pyrrolidinyl}-N'-2-propynylurea] showed an inhibition at 0.0001 µM of 72%.

Work on `Cc1ccc(C(=O)N2CC[C@@H](NC(=O)NCC3CC3)C2)cn1` [Example 17, N-(cyclopropylmethyl)-N'-{(3R)-1-[(6-methyl-3-pyridinyl)carbonyl]-3-pyrrolidinyl}urea] yielded an inhibition at 0.0001 µM of 76%.

`Cc1ccc(C(=O)N2CC[C@@H](NC(=O)NC3CCC3)C2)cn1` [Example 18, N-cyclobutyl-N'-{(3R)-1-[(6-methyl-3-pyridinyl)carbonyl]-3-pyrrolidinyl}urea] gave an inhibition at 0.0001 µM of 61%.

`Cc1ccc(C(=O)N2CC[C@@H](NC(=O)NC3CCCCC3)C2)cn1` [Example 19, N-cyclohexyl-N'-{(3R)-1-[(6-methyl-3-pyridinyl)carbonyl]-3-pyrrolidinyl}urea] showed an inhibition at 0.0001 µM of 63%.

In the case of `Cc1ccc(C(=O)N2CC[C@@H](NC(=O)NC3CCC(C)CC3)C2)cn1` (stereo partly drawn) [Example 20, N-(4-methylcyclohexyl)-N'-{(3R)-1-[(6-methyl-3-pyridinyl)carbonyl]-3-pyrrolidinyl}urea], the inhibition at 0.0001 µM is reported as 67%.

`Cc1ccc(C(=O)N2CC[C@@H](NC(=O)NCC3CCCCC3)C2)cn1` [Example 21, N-(cyclohexylmethyl)-N'-{(3R)-1-[(6-methyl-3-pyridinyl)carbonyl]-3-pyrrolidinyl}urea] was tested, and the inhibition at 0.0001 µM was 90%.

In the case of `Cc1ccc(C(=O)N2CC[C@@H](NC(=O)NC3CCCCCC3)C2)cn1` [Example 22, N-cycloheptyl-N'-{(3R)-1-[(6-methyl-3-pyridinyl)carbonyl]-3-pyrrolidinyl}urea], the inhibition at 0.0001 µM is reported as 70%.

In the case of `Cc1ccc(C(=O)N2CC[C@@H](NC(=O)N[C@H](CO)CC(C)C)C2)cn1` [Example 23, N-[(1S)-1-(hydroxymethyl)-3-methylbutyl]-N'-{(3R)-1-[(6-methyl-3-pyridinyl)carbonyl]-3-pyrrolidinyl}urea], the inhibition at 0.0001 µM is reported as 93%.

Work on `Cc1ccc(C(=O)N2CC[C@@H](NC(=O)N[C@@H](CO)CC(C)C)C2)cn1` [Example 24, N-[(1R)-1-(hydroxymethyl)-3-methylbutyl]-N'-{(3R)-1-[(6-methyl-3-pyridinyl)carbonyl]-3-pyrrolidinyl}urea] yielded an inhibition at 0.0001 µM of 70%.

`Cc1ccc(C(=O)N2CC[C@@H](NC(=O)N[C@H](CO)c3ccccc3)C2)cn1` [Example 25, N-[(1S)-2-hydroxy-1-phenylethyl]-N'-{(3R)-1-[(6-methyl-3-pyridinyl)carbonyl]-3-pyrrolidinyl}urea] was tested, and the inhibition at 0.0001 µM was 80%.

`Cc1ccc(C(=O)N2CC[C@@H](NC(=O)NCCCOC(C)C)C2)cn1` [Example 26, N-(3-isopropoxypropyl)-N'-{(3R)-1-[(6-methyl-3-pyridinyl)carbonyl]-3-pyrrolidinyl}urea] showed an inhibition at 0.0001 µM of 75%.

In the case of `Cc1ccc(C(=O)N2CC[C@@H](NC(=O)NCC(O)CO)C2)cn1` (stereo partly drawn) [Example 27, N-(2,3-dihydroxypropyl)-N'-{(3R)-1-[(6-methyl-3-pyridinyl)carbonyl]-3-pyrrolidinyl}urea], the inhibition at 0.0001 µM is reported as 83%.

`COc1ccc2[nH]cc(CCNC(=O)N[C@@H]3CCN(C(=O)c4ccc(C)nc4)C3)c2c1` [Example 29, N-[2-(5-methoxy-1H-indol-3-yl)ethyl]-N'-{(3R)-1-[(6-methyl-3-pyridinyl)carbonyl]-3-pyrrolidinyl}urea] was tested, and the inhibition at 0.0001 µM was 92%.
